PubChem BioAssay AID1919016 (Molecular Pharmacology Branch, DTP, NCI, 2023)

System: NCI-H196 complex spheroid growth, percent test/control
Assay: Anticancer human tumor NCI-H196 cell line growth inhibition [AhR];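 further: seven days of drug exposure starting three days after plating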;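 on viability, T/C: 100% = DMSO vehicle control wells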
Conditions: for IC50: curve of first compound; for viability, T/C: stronger effect = lower value; active means viability on the fitted dose curve at most 10% of control; inactive means the rest
How it was run: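 Complex tumor spheroids co-cultured with HUVEC and human MSC stroma; AhR antagonists tested in combination with standard-of-care and investigational agents. Top concentration at or near clinical Cmax (else 10 microM), half-log dilutions; growth expressed as percent test/control.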

[1] = second compound 0.1 µM, first compound 0.0316 µM
[2] = second compound 0.1 µM, first compound 0.1 µM
[3] = second compound 0.316 µM, first compound 0.0316 µM
[4] = second compound 0.316 µM, first compound 0.1 µM
[5] = second compound 1 µM, first compound 0.0316 µM
[6] = second compound 1 µM, first compound 0.1 µM
[7] = second compound 3.16 µM, first compound 0.0316 µM
[8] = second compound 3.16 µM, first compound 0.1 µM
[9] = second compound 10 µM, first compound 0.0316 µM
[10] = second compound 10 µM, first compound 0.1 µM

Cn1ncnc1C1c2n[nH]c(=O)c3cc(F)cc(c23)NC1c1ccc(F)cc1 (stereo not given) + Cc1cncc(-c2nc(NCCc3c[nH]c4ccccc34)c3ncn(C(C)C)c3n2)c1
> 100 nM: IC50 (second compound 0.1 µM) | IC50 (second compound 0.316 µM) | IC50 (second compound 1 µM) | IC50 (second compound 3.16 µM) | IC50 (second compound 10 µM)
inactive: viability, T/C (second compound 0.1 µM, first compound 0.000316 µM) 110% | viability, T/C (second compound 0.1 µM, first compound 0.001 µM) 101% | viability, T/C (second compound 0.1 µM, first compound 0.00316 µM) 114% | viability, T/C (second compound 0.1 µM, first compound 0.01 µM) 104% | viability, T/C [1] 99.3% | viability, T/C [2] 96% | viability, T/C (second compound 0.316 µM, first compound 0.000316 µM) 112% | viability, T/C (second compound 0.316 µM, first compound 0.001 µM) 98.6% | viability, T/C (second compound 0.316 µM, first compound 0.00316 µM) 110% | viability, T/C (second compound 0.316 µM, first compound 0.01 µM) 107% | viability, T/C [3] 110% | viability, T/C [4] 97.8% | viability, T/C (second compound 1 µM, first compound 0.000316 µM) 103% | viability, T/C (second compound 1 µM, first compound 0.001 µM) 102% | viability, T/C (second compound 1 µM, first compound 0.00316 µM) 109% | viability, T/C (second compound 1 µM, first compound 0.01 µM) 111% | viability, T/C [5] 109% | viability, T/C [6] 104% | viability, T/C (second compound 3.16 µM, first compound 0.000316 µM) 111% | viability, T/C (second compound 3.16 µM, first compound 0.001 µM) 113% | viability, T/C (second compound 3.16 µM, first compound 0.00316 µM) 126% | viability, T/C (second compound 3.16 µM, first compound 0.01 µM) 96.1% | viability, T/C [7] 108% | viability, T/C [8] 103% | viability, T/C (second compound 10 µM, first compound 0.000316 µM) 94.5% | viability, T/C (second compound 10 µM, first compound 0.001 µM) 97.8% | viability, T/C (second compound 10 µM, first compound 0.00316 µM) 91.7% | viability, T/C (second compound 10 µM, first compound 0.01 µM) 112% | viability, T/C [9] 96.6% | viability, T/C [10] 104%

CC(C)CC(NC(=O)C(Cc1ccccc1)NC(=O)c1cnccn1)B(O)O (stereo not given) + Cc1cncc(-c2nc(NCCc3c[nH]c4ccccc34)c3ncn(C(C)C)c3n2)c1
7.65 nM: IC50 (second compound 0.1 µM)
inactive: viability, T/C (second compound 0.1 µM, first compound 0.000949 µM) 98.2% | viability, T/C (second compound 0.1 µM, first compound 0.003 µM) 109% | viability, T/C (second compound 0.1 µM, first compound 0.00949 µM) 37.6% | viability, T/C (second compound 0.316 µM, first compound 0.000949 µM) 95.2% | viability, T/C (second compound 0.316 µM, first compound 0.003 µM) 99.1% | viability, T/C (second compound 0.316 µM, first compound 0.00949 µM) 45% | viability, T/C (second compound 1 µM, first compound 0.000949 µM) 102% | viability, T/C (second compound 1 µM, first compound 0.003 µM) 98.7% | viability, T/C (second compound 1 µM, first compound 0.00949 µM) 36.1% | viability, T/C (second compound 3.16 µM, first compound 0.000949 µM) 105% | viability, T/C (second compound 3.16 µM, first compound 0.003 µM) 103% | viability, T/C (second compound 3.16 µM, first compound 0.00949 µM) 51.9% | viability, T/C (second compound 10 µM, first compound 0.000949 µM) 83.2% | viability, T/C (second compound 10 µM, first compound 0.003 µM) 95% | viability, T/C (second compound 10 µM, first compound 0.00949 µM) 15.8%
5.54 nM: IC50 (second compound 10 µM)
7.35 nM: IC50 (second compound 1 µM)
9.9 nM: IC50 (second compound 3.16 µM)
active: viability, T/C (second compound 0.1 µM, first compound 0.03 µM) 1.78% | viability, T/C (second compound 0.1 µM, first compound 0.0949 µM) 1.16% | viability, T/C (second compound 0.1 µM, first compound 0.3 µM) 1.38% | viability, T/C (second compound 0.316 µM, first compound 0.03 µM) 1.25% | viability, T/C (second compound 0.316 µM, first compound 0.0949 µM) 2.43% | viability, T/C (second compound 0.316 µM, first compound 0.3 µM) 1.51% | viability, T/C (second compound 1 µM, first compound 0.03 µM) 1.32% | viability, T/C (second compound 1 µM, first compound 0.0949 µM) 1.62% | viability, T/C (second compound 1 µM, first compound 0.3 µM) 0.94% | viability, T/C (second compound 3.16 µM, first compound 0.03 µM) 0.84% | viability, T/C (second compound 3.16 µM, first compound 0.0949 µM) 0.89% | viability, T/C (second compound 3.16 µM, first compound 0.3 µM) 2.1% | viability, T/C (second compound 10 µM, first compound 0.03 µM) 0.72% | viability, T/C (second compound 10 µM, first compound 0.0949 µM) 0.96% | viability, T/C (second compound 10 µM, first compound 0.3 µM) 1.09%
8.51 nM: IC50 (second compound 0.316 µM)

COc1cccc2c1C(=O)c1c(O)c3c(c(O)c1C2=O)CC(O)(C(=O)CO)CC3OC1CC(N)C(O)C(C)O1 (stereo not given) + Cc1cncc(-c2nc(NCCc3c[nH]c4ccccc34)c3ncn(C(C)C)c3n2)c1
528 nM: IC50 (second compound 0.316 µM)
414 nM: IC50 (second compound 3.16 µM)
458 nM: IC50 (second compound 1 µM)
inactive: viability, T/C [1] 117% | viability, T/C [2] 102% | viability, T/C (second compound 0.1 µM, first compound 0.316 µM) 72.1% | viability, T/C (second compound 0.1 µM, first compound 1 µM) 27.3% | viability, T/C [3] 109% | viability, T/C [4] 115% | viability, T/C (second compound 0.316 µM, first compound 0.316 µM) 77.3% | viability, T/C (second compound 0.316 µM, first compound 1 µM) 15.7% | viability, T/C [5] 110% | viability, T/C [6] 106% | viability, T/C (second compound 1 µM, first compound 0.316 µM) 66.3% | viability, T/C (second compound 1 µM, first compound 1 µM) 15.6% | viability, T/C [7] 119% | viability, T/C [8] 95.9% | viability, T/C (second compound 3.16 µM, first compound 0.316 µM) 66.2% | viability, T/C (second compound 3.16 µM, first compound 1 µM) 6.46% | viability, T/C [9] 94.2% | viability, T/C [10] 77.8% | viability, T/C (second compound 10 µM, first compound 0.316 µM) 53.6%
active: viability, T/C (second compound 0.1 µM, first compound 3.16 µM) 2.2% | viability, T/C (second compound 0.1 µM, first compound 10 µM) 2.04% | viability, T/C (second compound 0.316 µM, first compound 3.16 µM) 0.7% | viability, T/C (second compound 0.316 µM, first compound 10 µM) 1.46% | viability, T/C (second compound 1 µM, first compound 3.16 µM) 0.61% | viability, T/C (second compound 1 µM, first compound 10 µM) 3.01% | viability, T/C (second compound 3.16 µM, first compound 3.16 µM) 1.24% | viability, T/C (second compound 3.16 µM, first compound 10 µM) 2.12% | viability, T/C (second compound 10 µM, first compound 1 µM) 2.32% | viability, T/C (second compound 10 µM, first compound 3.16 µM) 0.59% | viability, T/C (second compound 10 µM, first compound 10 µM) 1.88%
330 nM: IC50 (second compound 10 µM)
545 nM: IC50 (second compound 0.1 µM)
